Results on 1 molecule are retold here after US20250082584A1, “TRANSDERMAL THERAPEUTIC SYSTEM FOR THE TRANSDERMAL ADMINISTRATION OF SELEXIPAG” (LTS LOHMANN THERAPIE-SYSTEME AG, priority 2022, published 2025).

Structures are written as SMILES.

This series in a line: Permeation of Selexipag and active metabolite MRE-269 through fresh human skin in modified Keshary-Chien diffusion cells. In kind it is in vitro ADME. How it is done:
For determination of Selexipag and the Selexipag derived active metabolite MRE-269 permeated from fresh human skin tissue the following experiment was performed.
Modified Keshary-Chien diffusion cells were used for this experiment, in which fresh human skin was used as barrier between the donor and the acceptor part. The acceptor compartment contained the acceptor medium (0.9% NaCl+3% Vanillin+0.5% Methyl-β-cyclodextrin+30% Acetonitrile in aqua purificata), the donor chamber contained a liquid solution of Selexipag in oleic acid, dipropylene glycol, ethanol and aqua purificata. The liquid solution Composition 1 was applied as suspension, with undissolved Selexipag, whereas Composition 2 was centrifuged prior to application and only the clear centrifugate was applied. The composition of the selexipag-containing coating Compositions 1 and 2 of are summarized below.
Fresh human skin from plastic surgery was used (upper arm, person). […]
The samples of acceptor solution were filtrated with syringe filters and analyzed with HPLC. Quantification of Selexipag was performed with an external standard. […]
After 168 hrs of permeation the diffusion cells were dismantled, and the skin was rinsed with aqua purificata to remove residuals of the liquid solutions. […] The extracts were then diluted with acceptor medium, filtrated and analyzed with HPLC analogue to the permeation samples.

`CC(C)N(CCCCOCC(=O)O)c1cnc(-c2ccccc2)c(-c2ccccc2)n1` [MRE-269]: the “Onset of release of MRE-269 compared to Selexipag in acceptor medium (FIG. 7 vs FIG. 8)” value (fresh human skin, acceptor medium, cumulative data) is on record as “starts slower”. The “Detection of active metabolite MRE-269 in permeation samples and skin extraction samples” value (liquid Selexipag solutions (Compositions 1 and 2) on fresh human skin, 500 μm, 32° C., sampling 24-48-120-144-168 hrs, HPLC) is on record as “detected at each sampling timepoint in all permeation samples as well as in the skin extraction samples”.
